In patent US8921271B2, “Herbicidal composition comprising flazasulfuron and metribuzin” (Ishihara Sangyo Kaisha, Ltd., priority 2011, dated 2014):

Experiments:
goosegrass [1] = test: Test Example 1: pot test, soil treatment, visual growth inhibition of goosegrass; format: in vivo, Eleusine indica (L.) Gaertn.; details: Eleusine indica, 24 h, soil treatment one day after sowing, 14th day after treatment, read-out: Growth inhibition rate (%) of goosegrass, Measured value
Protocol: Upland field soil was put into a 1/1,000,000 hectare pot, and seeds of goosegrass (Eleusine indica (L.) Gaertn.) were sown. One day later, water dispersible granules containing flazasulfuron as an active ingredient (tradename: SHIBAGEN DF, manufactured by Ishihara Sangyo Kaisha, Ltd.) and water dispersible granules containing metribuzin as an active ingredient (tradename: Unimark, manufactured by UPL) in predetermined amounts were diluted with water corresponding to 200 L/ha and applied for soil treatment by a small sprayer.
On the 14th day after the treatment, the state of growth of goosegrass was visually observed to determine the growth inhibition rate (%) (measured value) in accordance with the following evaluation standard. Further, in accordance with the Colby's formula, the growth inhibition rate (%) (calculated value) was calculated. Growth inhibition rate(%)=0 (equivalent to the non-treated area) to 100 (complete kill)

goosegrass [2] = test: Test Example 2: pot test, foliar treatment at 5 leaf stage, visual growth inhibition of goosegrass; format: in vivo, Eleusine indica (L.) Gaertn.; details: Eleusine indica, foliar treatment at 5 leaf stage with 0.25 vol % Agral, 28th day after treatment, read-out: Growth inhibition rate (%) of goosegrass, Measured value
Protocol: Upland field soil was put into a 1/1,000,000 ha pot, and seeds of goosegrass (Eleusine indica (L.) Gaertn.) were sown. When goosegrass reached 5 leaf stage, SHIBAGEN DF (tradename) and Unimark (tradename) in predetermined amounts were diluted with water (corresponding to 200 L/ha) containing 0.25 vol % of an agricultural adjuvant (tradename: Agral, manufactured by Syngenta crop protection) and applied for foliar treatment by a small sprayer.
On the 28th day after the treatment, the state of growth of goosegrass was visually observed, and the growth inhibition rate (%) obtained in the same manner as in Test Example 1 is shown in Table 2.

shattercane = test: Test Example 4: pot test, soil treatment, visual growth inhibition of shattercane; format: in vivo, Sorghum bicolor (L.) Moench.; details: Sorghum bicolor, soil treatment on the day after sowing, 14th day after treatment, read-out: Growth inhibition rate (%) of shattercane, Measured value
Protocol: Upland field soil was put into a 1/1,000,000 ha pot, and seeds of shattercane (Sorghum bicolor (L.) Moench.) were sown. On the next day, SHIBAGEN DF (tradename) and Unimark (tradename) in predetermined amounts were diluted with water corresponding to 300 L/ha and applied for soil treatment by a small sprayer.
On the 14th day after the treatment, the state of growth of shattercane was visually observed, and the growth inhibition rate (%) obtained in the same manner as in Test Example 1 is shown in Table 4.

ivy-leaved morningglory = test: Test Example 3: pot test, treatment the day after sowing, visual growth inhibition of ivy-leaved morningglory; format: in vivo, Ipomoea hederacea (L.) Jacq.; details: Ipomoea, treatment on the day after sowing, 14th day after treatment, read-out: Growth inhibition rate (%) of ivy-leaved morningglory, Measured value
Protocol: Upland field soil was put into a 1/1,000,000 ha pot, and seeds of ivy-leaved momingglory (Ipomoea hederacea (L.) Jacq.) were sown. On the next day, SHIBAGEN DF (tradename) and Unimark (tradename) in predetermined amounts were diluted with water corresponding to 300 L/ha and applied for […] by a small sprayer. On the 14th day after the treatment, the state of growth of ivy-leaved momingglory was visually observed, and the growth inhibition rate (%) obtained in the same manner as in Test Example 1 is shown in Table 3.

[3] = system: summergrass, giant foxtail, redroot pigweed and threeseeded copperleaf; test: Test Example 5: field test, foliar treatment, weed coverage (residual activity); format: in vivo; details: for Weed coverage (%) 6th day after treatment / Weed coverage (%) 20th day after treatment / Weed coverage (%) 33rd day after treatment: field, foliar treatment with 0.25 vol % Agral, coverage relative to non-treated area; for change in weed coverage: on the 20th day after the treatment, single active ingredient, field test
Excerpt: In a field in which summergrass (Digitaria ciliaris (Retz.) Koel), giant foxtail (Setaria faberi Herrm.), redroot pigweed (Amaranthus retroflexus L.) and threeseeded copperleaf (Acalypha australis L.) emerged, was compartmentalized into compartments of 0.5×1 m. When summergrass reached from 5 to 10 leaf stage, giant foxtail reached from 6 to 7 leaf stage, threeseeded copperleaf reached from 4 to 10 leaf stage and redroot pigweed reached from 6 to 9 leaf stage, SHIBAGEN DF (tradename) and Unimark (tradename) in predetermined amounts were diluted with water (corresponding to 200 L/ha) containing 0.25 vol % of an agricultural adjuvant Agral (tradename) and applied for foliar treatment by a small sprayer in each compartment.
On the 6th, 20th and 33rd days after the treatment, the weed coverage (%) of the above four types of weeds in each compartment was visually observed, and the results are shown in Table 5 and FIG. 1. The weed coverage (%) was calculated in accordance with the following formula.
A: (the area of the ground surface covered with the weed aerial part (leaves and stem) in the treated area)
B: (the area of the ground surface covered with the weed aerial part (leaves and stem) in the non-treated area) Weed coverage(%)=(A/B)×100
In FIG. 1, x-x represents the weed coverage in the area treated with flazasulfuron, ▴-▴ represents the weed coverage in the area treated with metribuzin, and ●-● represents the weed coverage in the area treated with flazasulfuron and metribuzin in combination.

Row | SMILES | inhibition at 18.75 g/ha (goosegrass [1]; dose 18.75 g/ha, 0 = non-treated, 100 = complete kill) [%] | inhibition at 37.5 g/ha (goosegrass [2]; dose 37.5 g/ha) [%] | inhibition at 15 g/ha (shattercane; dose 15 g/ha) [%] | inhibition at 100 g/ha (ivy-leaved morningglory; dose 100 g/ha) [%] | Weed coverage (%) 6th day after treatment ([3]; dose 37.5 g/ha) [%] | Weed coverage (%) 20th day after treatment ([3]; dose 37.5 g/ha) [%] | Weed coverage (%) 33rd day after treatment ([3]; dose 37.5 g/ha) [%] | change in weed coverage [3] | inhibition at 300 g/ha (goosegrass [1]; dose 300 g/ha) [%] | inhibition at 600 g/ha (goosegrass [1]; dose 600 g/ha) [%] | inhibition at 800 g/ha (goosegrass [2]; dose 800 g/ha) [%] | inhibition at 1000 g/ha (goosegrass [2]; dose 1,000 g/ha) [%] | inhibition at 2000 g/ha (shattercane; dose 2,000 g/ha) [%] | inhibition at 300 g/ha (ivy-leaved morningglory; dose 300 g/ha) [%] | Weed coverage (%) 6th day after treatment ([3]; dose 1,200 g/ha) [%] | Weed coverage (%) 20th day after treatment ([3]; dose 1,200 g/ha) [%] | Weed coverage (%) 33rd day after treatment ([3]; dose 1,200 g/ha) [%]
1 | COc1cc(OC)nc(NC(=O)NS(=O)(=O)c2ncccc2C(F)(F)F)n1 [Flazasulfuron, 1-(4,6-dimethoxypyrimidin-2-yl)-3-(3-trifluoromethyl-2-pyridylsulfonyl)urea] | 30 | 25 | 30 | 80 | 26 | 30 | 65 | an increase in the weed coverage was confirmed |  |  |  |  |  |  |  |  | 
2 | CSc1nnc(C(C)(C)C)c(=O)n1N [Metribuzin, 4-amino-6-tertiary butyl-3-methylthio-1,2,4-triazin-5(4H)-one] |  |  |  |  |  |  |  | an increase in the weed coverage was confirmed | 55 | 73 | 83 | 90 | 20 | 0 | 19 | 24 | 35
